Numbered stars: 1 amine (or outer) side, 2 acyl side, 3 side chain; on linkers, the order of the positions; unused ones are H or OH. Bridge positions count the residues as written; N and C are the ends. Side chains are listed from the residue outwards. Peptide text beside a SMILES is read from it. * marks the point of attachment. C20 diacid = O=C(O)CCCCCCCCCCCCCCCCCCC(=O)*; γGlu = O=C(O)[C@H](CCC(=O)[*:2])N[*:1]
Experiments:
[1] = ASSAY (III) ThT fibrillation assay for physical stability; format: physicochemical
In short: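 Physical stability scored by ThT fluorescence (444 nm excitation, 485 nm emission) tracked every 20 min during 37 °C incubation with 960 rpm shaking, ThT at 1 μM final. Values are replicate means with SD at chosen times; HPLC against pramlintide standard gives initial and post-assay soluble concentrations.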

[2] = target: T1, rat amylin receptor (rat calcitonin receptor + rat RAMP 3) (Rattus norvegicus, UniProt P32214+Q9JJ73); experiment: ASSAY (VI) binding to the rat amylin receptor; conditions: for IC50: binding to rat amylin receptor, read-out: rAmylin-R bind IC50
T1 construct: expressed in transfected cells; host or cells: BHK tk'ts 13 (transient, FuGENE 6), membranes
T1 sequence (P32214 25-479 isoform P32214-2 limits assumed): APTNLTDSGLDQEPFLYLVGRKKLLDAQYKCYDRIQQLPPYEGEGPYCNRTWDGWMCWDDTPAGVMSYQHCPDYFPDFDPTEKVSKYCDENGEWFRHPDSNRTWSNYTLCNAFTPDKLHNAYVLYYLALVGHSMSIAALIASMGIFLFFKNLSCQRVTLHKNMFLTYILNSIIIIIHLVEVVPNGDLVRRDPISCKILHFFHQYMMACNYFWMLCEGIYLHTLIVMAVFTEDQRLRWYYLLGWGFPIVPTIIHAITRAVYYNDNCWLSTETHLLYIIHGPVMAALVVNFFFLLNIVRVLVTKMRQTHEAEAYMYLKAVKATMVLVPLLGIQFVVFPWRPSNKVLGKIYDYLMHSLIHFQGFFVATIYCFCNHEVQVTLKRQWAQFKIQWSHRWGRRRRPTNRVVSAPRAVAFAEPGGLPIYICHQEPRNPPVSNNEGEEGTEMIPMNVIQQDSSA
T1 sequence (Q9JJ73 23-147 partner): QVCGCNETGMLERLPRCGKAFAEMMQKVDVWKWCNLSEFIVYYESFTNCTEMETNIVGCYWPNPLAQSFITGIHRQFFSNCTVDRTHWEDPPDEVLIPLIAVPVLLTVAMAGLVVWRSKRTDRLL
In short: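 Membranes for this rat amylin receptor binding assay came from BHK tk′ts 13 cells. The cells were transiently transfected with rat calcitonin receptor using the FuGENE® 6 reagent from Roche, as the manufacturer recommends. The cells were collected approximately 48 hours after transfection, and membranes were then prepared.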

[3] = Table 7, rat binding selectivity, rCTR IC50 / rAmylin-R IC50
[4] = Table 7a (preferred compounds), rat binding selectivity, rCTR IC50 / rAmylin-R IC50
[5] = ratio of rCTR bind IC50 to rAmylin-R bind IC50

Question: With CC[C@H](C)[C@H](NC(=O)[C@H](C)NC(=O)CNC(=O)[C@H](Cc1ccccc1)NC(=O)[C@H](CC(N)=O)NC(=O)[C@@H]1CCCN1C(=O)[C@H](CO)NC(=O)[C@H](CO)NC(=O)[C@H](Cc1c[nH]cn1)NC(=O)[C@H](CCCNC(=N)N)NC(=O)[C@H](CC(C)C)NC(=O)[C@H](Cc1ccccc1)NC(=O)[C@H](CC(N)=O)NC(=O)[C@H](C)NC(=O)[C@H](CC(C)C)NC(=O)[C@H](CCCNC(=N)N)NC(=O)[C@H](CCC(N)=O)NC(=O)[C@@H](NC(=O)[C@H](C)NC(=O)[C@@H]1CSSC[C@H](NC(=O)[C@@H](N)CCCCNC(=O)CC[C@H](NC(=O)CCCCCCCCCCCCCCCCCCC(=O)O)C(=O)O)C(=O)N[C@@H](CC(N)=O)C(=O)N[C@@H]([C@@H](C)O)C(=O)N[C@@H](C)C(=O)N[C@@H]([C@@H](C)O)C(=O)N1)[C@@H](C)O)C(=O)N1CCC[C@H]1C(=O)N[C@@H](CO)C(=O)N[C@@H](CO)C(=O)N[C@H](C(=O)N[C@@H](CC(N)=O)C(=O)N[C@H](C(=O)NCC(=O)N[C@@H](CO)C(=O)N[C@@H](CCCCN)C(=O)N[C@H](C(=O)N[C@@H](Cc1ccc(O)cc1)C(N)=O)[C@@H](C)O)C(C)C)[C@@H](C)O [Example 35] (H-K([γGlu-C20 diacid])CNTATCATQRLANFLRHSSPNFGAIPSSTNVGSKTY-NH2; disulfide 2-7; N-terminus assumed) as the molecule, how does the “ThT pH 4.0 lag time (h)” value [1] read?
Answer: 45 h

Question: What about the IC50 ([2]; Table 7) of the same molecule?
Answer: 0.948 nM

Question: And the “Ratio rCT/rAmylin binding” value [2, 3]?
Answer: 65.1

Question: And the “Ratio rCT/rAmylin binding” value [2, 4]?
Answer: 65.1

Question: And the “Ratio rCT/rAmylin binding” value [2, 5]?
Answer: 65.1

Question: For CC[C@H](C)[C@H](NC(=O)[C@H](C)NC(=O)CNC(=O)[C@H](Cc1ccccc1)NC(=O)[C@H](CC(N)=O)NC(=O)[C@@H]1CCCN1C(=O)[C@H](CO)NC(=O)[C@H](CO)NC(=O)[C@H](Cc1c[nH]cn1)NC(=O)[C@H](CCCNC(=N)N)NC(=O)[C@H](CC(C)C)NC(=O)[C@H](Cc1ccccc1)NC(=O)[C@H](CCC(=O)O)NC(=O)[C@H](C)NC(=O)[C@H](CC(C)C)NC(=O)[C@H](CCCNC(=N)N)NC(=O)[C@H](CCC(N)=O)NC(=O)[C@@H](NC(=O)[C@H](C)NC(=O)[C@@H]1CSSC[C@H](NC(=O)[C@H](CCCCN)NC(=O)CC[C@H](NC(=O)CCCCCCCCCCCCCCCCCCC(=O)O)C(=O)O)C(=O)N[C@@H](CC(N)=O)C(=O)N[C@@H]([C@@H](C)O)C(=O)N[C@@H](C)C(=O)N[C@@H]([C@@H](C)O)C(=O)N1)[C@@H](C)O)C(=O)N1CCC[C@H]1C(=O)N[C@@H](CO)C(=O)N1CCC[C@H]1C(=O)N[C@H](C(=O)N[C@@H](CC(N)=O)C(=O)N[C@H](C(=O)NCC(=O)N[C@@H](CO)C(=O)N[C@@H](CC(N)=O)C(=O)N[C@H](C(=O)N[C@@H](Cc1ccc(O)cc1)C(N)=O)[C@@H](C)O)C(C)C)[C@@H](C)O [Example 37] ({C20 diacid-γGlu}-KCNTATCATQRLAEFLRHSSPNFGAIPSPTNVGSNTY-NH2; disulfide 2-7 (inferred)), which “ThT pH 4.0 lag time (h)” value [1] is on record?
Answer: 15 h

Question: And the IC50 ([2]; Table 7)?
Answer: 0.514 nM

Question: And the “Ratio rCT/rAmylin binding” value [2, 3]?
Answer: 14.3

Question: What about the “Ratio rCT/rAmylin binding” value [2, 4] of the same molecule?
Answer: 14.3

Question: What does the source list for CC[C@H](C)[C@H](NC(=O)[C@H](C)NC(=O)CNC(=O)[C@H](Cc1ccccc1)NC(=O)[C@H](CC(N)=O)NC(=O)[C@@H]1CCCN1C(=O)[C@H](CO)NC(=O)[C@H](CO)NC(=O)[C@H](Cc1c[nH]cn1)NC(=O)[C@H](CCCNC(=N)N)NC(=O)[C@H](CC(C)C)NC(=O)[C@H](Cc1ccccc1)NC(=O)[C@H](CC(N)=O)NC(=O)[C@H](C)NC(=O)[C@H](CC(C)C)NC(=O)[C@H](CCCNC(=N)N)NC(=O)[C@H](CCC(N)=O)NC(=O)[C@@H](NC(=O)[C@H](C)NC(=O)[C@@H]1CSSC[C@H](NC(=O)[C@@H](N)CCCCNC(=O)COCCOCCNC(=O)CC[C@H](NC(=O)CCCCCCCCCCCCCCCCCCC(=O)O)C(=O)O)C(=O)N[C@@H](CC(N)=O)C(=O)N[C@@H]([C@@H](C)O)C(=O)N[C@@H](C)C(=O)N[C@@H]([C@@H](C)O)C(=O)N1)[C@@H](C)O)C(=O)N1CCC[C@H]1C(=O)N[C@@H](CO)C(=O)N[C@@H](CO)C(=O)N[C@H](C(=O)N[C@@H](CC(N)=O)C(=O)N[C@H](C(=O)NCC(=O)N[C@@H](CO)C(=O)N[C@@H](CCCNC(=N)N)C(=O)N[C@H](C(=O)N[C@@H](Cc1ccc(O)cc1)C(N)=O)[C@@H](C)O)C(C)C)[C@@H](C)O [Example 38]?
Answer: ThT pH 4.0 lag time (h) [1]: 27 h; IC50 ([2]; Table 7): 0.383 nM

Question: Which results are given for CC[C@H](C)[C@H](NC(=O)[C@H](C)NC(=O)CNC(=O)[C@H](Cc1ccccc1)NC(=O)[C@H](CC(N)=O)NC(=O)[C@@H]1CCCN1C(=O)[C@H](CO)NC(=O)[C@H](CO)NC(=O)[C@H](Cc1c[nH]cn1)NC(=O)[C@H](CCCNC(=N)N)NC(=O)[C@H](CC(C)C)NC(=O)[C@H](Cc1ccccc1)NC(=O)[C@H](CC(N)=O)NC(=O)[C@H](C)NC(=O)[C@H](CC(C)C)NC(=O)[C@H](CCCNC(=N)N)NC(=O)[C@H](CCC(N)=O)NC(=O)[C@@H](NC(=O)[C@H](C)NC(=O)[C@@H]1CSSC[C@H](NC(=O)[C@H](CCCCN)NC(=O)CC[C@H](NC(=O)CCCCCCCCCCCCCCCCCCC(=O)O)C(=O)O)C(=O)N[C@@H](CC(N)=O)C(=O)N[C@@H]([C@@H](C)O)C(=O)N[C@@H](C)C(=O)N[C@@H]([C@@H](C)O)C(=O)N1)[C@@H](C)O)C(=O)N1CCC[C@H]1C(=O)N[C@@H](CO)C(=O)N[C@@H](CO)C(=O)N[C@H](C(=O)N[C@@H](CC(N)=O)C(=O)N[C@H](C(=O)NCC(=O)N[C@@H](CCCNC(=N)N)C(=O)N[C@@H](CC(N)=O)C(=O)N[C@H](C(=O)N[C@@H](Cc1ccc(O)cc1)C(N)=O)[C@@H](C)O)C(C)C)[C@@H](C)O [Example 39] ({C20 diacid-γGlu}-KCNTATCATQRLANFLRHSSPNFGAIPSSTNVGRNTY-NH2; disulfide 2-7)?
Answer: ThT pH 4.0 lag time (h) [1]: 45 h; IC50 ([2]; Table 7): 1.77 nM; Ratio rCT/rAmylin binding [2, 3]: 54.5; Ratio rCT/rAmylin binding [2, 4]: 54.5; Ratio rCT/rAmylin binding [2, 5]: 54.5

Question: Which results are given for CC[C@H](C)[C@H](NC(=O)[C@H](C)NC(=O)CNC(=O)[C@H](Cc1ccccc1)NC(=O)[C@H](CC(N)=O)NC(=O)[C@@H]1CCCN1C(=O)[C@H](CO)NC(=O)[C@H](CO)NC(=O)[C@H](Cc1c[nH]cn1)NC(=O)[C@H](CCCNC(=N)N)NC(=O)[C@H](CC(C)C)NC(=O)[C@H](Cc1ccccc1)NC(=O)[C@H](CC(N)=O)NC(=O)[C@H](C)NC(=O)[C@H](CC(C)C)NC(=O)[C@H](CCCNC(=N)N)NC(=O)[C@H](CCC(N)=O)NC(=O)[C@@H](NC(=O)[C@H](C)NC(=O)[C@@H]1CSSC[C@H](NC(=O)[C@H](CCCCN)NC(=O)CC[C@H](NC(=O)CCCCCCCCCCCCCCCCCCC(=O)O)C(=O)O)C(=O)N[C@@H](CC(N)=O)C(=O)N[C@@H]([C@@H](C)O)C(=O)N[C@@H](C)C(=O)N[C@@H]([C@@H](C)O)C(=O)N1)[C@@H](C)O)C(=O)N1CCC[C@H]1C(=O)N[C@@H](CO)C(=O)N[C@@H](CO)C(=O)N[C@H](C(=O)N[C@@H](CC(N)=O)C(=O)N[C@H](C(=O)NCC(=O)N[C@@H](Cc1c[nH]cn1)C(=O)N[C@@H](CC(N)=O)C(=O)N[C@H](C(=O)N[C@@H](Cc1ccc(O)cc1)C(N)=O)[C@@H](C)O)C(C)C)[C@@H](C)O [Example 40]?
Answer: ThT pH 4.0 lag time (h) [1]: 26 h; IC50 ([2]; Table 7): 1.5 nM; Ratio rCT/rAmylin binding [2, 3]: 46.2; Ratio rCT/rAmylin binding [2, 4]: 46.2; Ratio rCT/rAmylin binding [2, 5]: 46.2

— patent US9023789B2, “Amylin analogs and pharmaceutical compositions thereof” (Novo Nordisk A/S, priority 2012, dated 2015)
